Test results from patent publication US20090203708A1, “NOVEL SUBSTITUTED-1-H-QUINAZOLINE-2,4-DIONE DERIVATIVES, PREPARATION METHOD THEREOF AND PHARMACEUTICAL COMPOSITION CONTAINING THE SAME” (Korea Research Institute of Chemical Technology, priority 2006, published 2009).

Key:
[1] = molecular target: T1, 5-HT1a (human recombinant receptor, CHO-K1) (Homo sapiens, UniProt P08908); assay: Radioligand binding assay, 5-HT1a
T1 sequence (P08908 1-422): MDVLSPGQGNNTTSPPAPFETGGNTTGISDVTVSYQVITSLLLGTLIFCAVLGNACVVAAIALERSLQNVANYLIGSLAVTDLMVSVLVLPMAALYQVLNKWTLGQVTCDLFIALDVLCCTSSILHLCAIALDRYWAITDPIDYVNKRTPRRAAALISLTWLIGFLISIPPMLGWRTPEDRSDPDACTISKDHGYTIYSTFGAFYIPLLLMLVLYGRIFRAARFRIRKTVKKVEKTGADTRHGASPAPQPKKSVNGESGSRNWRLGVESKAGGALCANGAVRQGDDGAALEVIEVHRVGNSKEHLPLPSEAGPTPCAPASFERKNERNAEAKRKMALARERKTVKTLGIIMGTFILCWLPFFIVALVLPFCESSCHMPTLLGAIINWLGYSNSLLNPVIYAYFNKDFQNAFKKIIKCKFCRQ

lethality = assay: Lethality (LD50) in mice; assay type: in vivo; conditions: i.p.
D1 receptor = D1 receptor (Homo sapiens, UniProt P21728); assay: Radioligand binding assay, dopamine D1
D1 receptor, sequence (P21728 whole entry): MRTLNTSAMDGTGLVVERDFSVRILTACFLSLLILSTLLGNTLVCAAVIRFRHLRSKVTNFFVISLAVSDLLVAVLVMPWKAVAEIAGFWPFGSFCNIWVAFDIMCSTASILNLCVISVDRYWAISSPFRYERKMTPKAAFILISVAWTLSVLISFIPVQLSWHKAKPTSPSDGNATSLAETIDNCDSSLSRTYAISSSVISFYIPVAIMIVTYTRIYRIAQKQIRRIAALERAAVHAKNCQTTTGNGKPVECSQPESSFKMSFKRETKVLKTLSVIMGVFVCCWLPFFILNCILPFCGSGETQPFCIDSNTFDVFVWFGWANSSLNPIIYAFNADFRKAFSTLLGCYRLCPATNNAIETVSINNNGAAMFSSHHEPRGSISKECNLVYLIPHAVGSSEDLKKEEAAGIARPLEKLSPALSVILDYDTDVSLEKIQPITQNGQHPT

D3 (hD3 receptor) = D3 (hD3 receptor) (Homo sapiens, UniProt P35462); assay: Radioligand binding assay, dopamine D3
D3 (hD3 receptor), sequence (P35462 whole entry): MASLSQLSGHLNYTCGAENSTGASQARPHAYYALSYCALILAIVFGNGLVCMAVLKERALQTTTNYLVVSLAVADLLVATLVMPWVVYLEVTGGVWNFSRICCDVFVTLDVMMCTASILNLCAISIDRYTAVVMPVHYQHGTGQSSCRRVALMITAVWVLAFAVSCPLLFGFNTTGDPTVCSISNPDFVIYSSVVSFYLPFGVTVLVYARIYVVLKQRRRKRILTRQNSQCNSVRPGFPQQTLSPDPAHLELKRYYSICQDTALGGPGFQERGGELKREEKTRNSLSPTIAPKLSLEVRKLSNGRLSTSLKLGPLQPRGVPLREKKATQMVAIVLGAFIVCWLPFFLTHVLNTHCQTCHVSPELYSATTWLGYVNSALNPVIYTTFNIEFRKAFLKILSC

[2] = tested on: apomorphine-induced PPI disruption; assay: Apomorphine-induced PPI disruption in rat
[3] = molecular target: human serotonin 5-HT6 receptor (Homo sapiens, UniProt P50406); assay: [3H]LSD binding assay for cloned 5-HT6 receptors
human serotonin 5-HT6 receptor, sequence (P50406 whole entry): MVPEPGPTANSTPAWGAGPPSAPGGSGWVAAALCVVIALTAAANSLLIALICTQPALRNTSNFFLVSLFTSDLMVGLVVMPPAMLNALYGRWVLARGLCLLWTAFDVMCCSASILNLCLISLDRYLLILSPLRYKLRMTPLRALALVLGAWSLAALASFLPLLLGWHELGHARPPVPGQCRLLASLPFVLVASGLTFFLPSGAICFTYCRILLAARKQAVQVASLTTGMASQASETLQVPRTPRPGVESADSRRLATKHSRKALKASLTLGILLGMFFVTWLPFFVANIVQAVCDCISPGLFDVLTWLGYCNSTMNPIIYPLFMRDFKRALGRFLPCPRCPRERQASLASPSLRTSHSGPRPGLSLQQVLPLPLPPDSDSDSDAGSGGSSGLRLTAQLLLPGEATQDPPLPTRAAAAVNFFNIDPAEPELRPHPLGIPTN

[4] = molecular target: T2, 5-HT2c (human recombinant receptor, CHO-K1) (Homo sapiens, UniProt P28335); assay: Radioligand binding assay, 5-HT2c
T2 sequence (P28335 33-458): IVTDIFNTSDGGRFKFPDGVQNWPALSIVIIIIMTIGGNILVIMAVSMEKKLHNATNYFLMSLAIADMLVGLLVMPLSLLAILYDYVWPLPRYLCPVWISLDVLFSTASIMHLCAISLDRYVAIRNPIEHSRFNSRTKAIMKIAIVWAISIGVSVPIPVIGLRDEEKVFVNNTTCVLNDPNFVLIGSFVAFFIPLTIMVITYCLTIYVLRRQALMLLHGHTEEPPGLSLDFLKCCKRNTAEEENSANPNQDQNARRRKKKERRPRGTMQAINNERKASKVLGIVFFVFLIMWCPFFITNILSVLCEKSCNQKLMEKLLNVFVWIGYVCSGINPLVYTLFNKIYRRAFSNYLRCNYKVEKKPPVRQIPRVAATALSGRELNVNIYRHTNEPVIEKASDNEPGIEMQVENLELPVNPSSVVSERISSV

D2 (hD2L receptor) = molecular target: T3, D2 (hD2L receptor) (Homo sapiens, UniProt P14416); assay: Radioligand binding assay, dopamine D2; conditions: [3H] spiperone 1 nM; read-out: Binding affinity IC50 D2
T3 construct: purchased BioSignal Packard Inc., Montreal, Canada
T3 sequence (P14416 whole entry): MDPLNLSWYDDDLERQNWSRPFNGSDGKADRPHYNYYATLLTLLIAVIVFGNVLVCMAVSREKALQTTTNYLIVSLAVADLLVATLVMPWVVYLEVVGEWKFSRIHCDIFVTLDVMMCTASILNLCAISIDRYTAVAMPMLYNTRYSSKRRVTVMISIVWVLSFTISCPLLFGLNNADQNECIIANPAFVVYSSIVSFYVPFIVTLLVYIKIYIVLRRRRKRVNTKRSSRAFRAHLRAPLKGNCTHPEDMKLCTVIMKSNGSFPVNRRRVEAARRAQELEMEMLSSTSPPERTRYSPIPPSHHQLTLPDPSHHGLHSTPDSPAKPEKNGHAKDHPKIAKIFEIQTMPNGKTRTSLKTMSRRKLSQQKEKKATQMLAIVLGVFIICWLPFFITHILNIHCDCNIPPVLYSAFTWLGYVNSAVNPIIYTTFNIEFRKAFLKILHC
In short: (§1)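 Competition binding used human receptor membranes: hD2L with 1 nM [3H]spiperone, and hD4.2 with 0.06 nM [3H]YM-09151-2 in Tris-HCl pH 7.4 with Mg/EDTA/K/Ca. Nonspecific binding was defined with 10 μM haloperidol for D2 and 10 μM clozapine for D4. IC50 was fitted by nonlinear regression from 7–8 concentrations in duplicate, across three assays.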

rotarod deficit = assay: Rotarod deficit in mice; assay type: in vivo; conditions: for Rotarod Deficit TD50: mice, i.p. 30 min before testing
Description: In order to examine the effects of the compounds of the present invention on the central nervous system and behavior, a rotarod test was performed as follows.
Mice were placed on a plastic rod having a node 1 inch in diameter (Ugo-Basile, Milano, Italy), followed by rotating the rod at a speed of 6 rpm. 30, 60, 90 and 120 min after the administration of test compounds, the mice that fell from the rotating rod within 1 min were counted to determine rotarod deficits (%) (Dunham et al., 1957).

[5] = molecular target: 5-HT2a (human recombinant receptor, CHO-K1) (Homo sapiens, UniProt P28223); assay: Radioligand binding assay, 5-HT2a
5-HT2a (human recombinant receptor, CHO-K1), sequence (P28223 whole entry): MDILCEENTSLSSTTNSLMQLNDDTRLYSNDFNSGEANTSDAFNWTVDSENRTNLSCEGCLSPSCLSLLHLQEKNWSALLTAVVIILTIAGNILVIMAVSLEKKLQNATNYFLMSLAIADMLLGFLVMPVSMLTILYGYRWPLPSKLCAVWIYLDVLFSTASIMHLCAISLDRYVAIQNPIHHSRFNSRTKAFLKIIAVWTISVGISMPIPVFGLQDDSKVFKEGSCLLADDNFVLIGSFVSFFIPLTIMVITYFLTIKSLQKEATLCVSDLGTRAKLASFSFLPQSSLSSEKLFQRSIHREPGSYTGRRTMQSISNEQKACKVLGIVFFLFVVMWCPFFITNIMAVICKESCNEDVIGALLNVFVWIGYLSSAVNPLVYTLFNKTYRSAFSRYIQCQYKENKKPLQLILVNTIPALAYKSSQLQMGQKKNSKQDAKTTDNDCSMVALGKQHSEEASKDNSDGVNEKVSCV

[6] = molecular target: 5-HT7 (human recombinant receptor, CHO-K1) (Homo sapiens, UniProt P34969); assay: Radioligand binding assay, 5-HT7
5-HT7 (human recombinant receptor, CHO-K1), sequence (P34969 whole entry): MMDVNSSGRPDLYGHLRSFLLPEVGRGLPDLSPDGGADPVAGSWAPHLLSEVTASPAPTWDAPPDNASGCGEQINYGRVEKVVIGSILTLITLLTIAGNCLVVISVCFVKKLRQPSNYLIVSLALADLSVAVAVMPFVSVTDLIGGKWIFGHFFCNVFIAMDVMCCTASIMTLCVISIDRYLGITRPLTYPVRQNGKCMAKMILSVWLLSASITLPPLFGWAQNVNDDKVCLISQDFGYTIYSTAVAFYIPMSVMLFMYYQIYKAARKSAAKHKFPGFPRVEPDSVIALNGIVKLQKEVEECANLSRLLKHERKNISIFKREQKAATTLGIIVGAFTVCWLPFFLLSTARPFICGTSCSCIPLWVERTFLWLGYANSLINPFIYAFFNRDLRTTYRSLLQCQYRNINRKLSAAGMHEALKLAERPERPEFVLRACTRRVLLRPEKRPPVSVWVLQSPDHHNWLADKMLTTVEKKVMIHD

[7] = molecular target: T4, HeLa cells transfected with human 5-HT6 receptor (Homo sapiens, UniProt P50406); assay: Serotonin-stimulated cAMP accumulation in HeLa cells (EIA); assay type: cell-based
T4 construct: expressed in transfected cells; host or cells: HeLa
T4 sequence (P50406 whole entry): as the sequence (P50406 whole entry) above

D4 (hD4.2 receptor) = molecular target: T5, D4 (hD4.2 receptor) (Homo sapiens, UniProt P21917, DEL265-296); assay: Radioligand binding assay, dopamine D4; conditions: [3H] YM-09151-2 0.06 nM; read-out: Binding affinity IC50 D4
T5 construct: purchased BioSignal Packard Inc., Montreal, Canada
T5 sequence (P21917 with tags, fused parts or gaps DEL265-296): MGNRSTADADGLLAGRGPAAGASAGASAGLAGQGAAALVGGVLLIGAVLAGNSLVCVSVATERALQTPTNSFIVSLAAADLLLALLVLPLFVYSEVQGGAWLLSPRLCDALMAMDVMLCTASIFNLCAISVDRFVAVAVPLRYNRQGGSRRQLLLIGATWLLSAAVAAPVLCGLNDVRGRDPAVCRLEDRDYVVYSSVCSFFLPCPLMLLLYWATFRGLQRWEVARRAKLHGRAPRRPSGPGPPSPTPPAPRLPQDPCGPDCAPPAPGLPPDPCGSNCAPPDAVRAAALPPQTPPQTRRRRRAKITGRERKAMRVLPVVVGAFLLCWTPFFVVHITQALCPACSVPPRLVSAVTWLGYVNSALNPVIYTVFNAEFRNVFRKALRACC
In short: as §1

5-HT6 receptors = 5-HT6 receptors (Homo sapiens, UniProt P50406); conditions: human 5-HT6 receptors, literature; cited from earlier work
5-HT6 receptors, sequence (P50406 whole entry): as the sequence (P50406 whole entry) above

[8] = tested on: yawning, stretching, and chewing; conditions: rats, literature; cited from earlier work
[9] = tested on: rat maximal electroseizure threshold; conditions: literature; cited from earlier work
food intake = conditions: literature; cited from earlier work
[10] = tested on: extracellular glutamate levels in the frontal cortex and dorsal hippocampus; conditions: literature; cited from earlier work
[11] = tested on: retention of a previously learned task; conditions: rats, literature; cited from earlier work

In the case of `C[C@H](c1ccccc1)n1c(=O)c2c(N3CCN(C)CC3)cc(Cl)cc2n(Cc2ccccc2)c1=O` [Example 40, 1-benzyl-7-chloro-5-(4-methyl-piperazin-1yl)-3-[(R)-1-phenyl-ethyl]-1H-quinazoline-2,4-dione], the IC50 [1] is reported as 4350 nM, the “Lethal Degrees LD50” value (lethality) is reported as >300 mg/kg, ip and the IC50 (D1 receptor) is reported as 2710 nM. The IC50 (D3 (hD3 receptor)) was 983 nM, the “effect of compound alone on PPI versus vehicle control” value ([2]; rat, 2.5, 5, 10 and 20 mg/kg i.p. alone) was “no significant effects” and the “mean startle amplitude versus apomorphine positive control” value ([2]; rat, given 30 min before apomorphine) was “did not induce significant difference in mean startle amplitude”. The “effect of pretreatment on apomorphine-induced PPI disruption” value ([2]; rat, i.p. 30 min before apomorphine (2 mg/kg, i.p.), 2.5, 5, 10 and 20 mg/kg) was “found to inhibit apomorphine (2 mg/kg, i.p.)-induced PPI disruption”, the IC50 [3] was 1.6 nM and the IC50 [4] was 477 nM. For the same compound, the IC50 (D2 (hD2L receptor)) was > 10000 nM, the “Rotarod Deficit TD50” value (rotarod deficit) was 139 mg/kg, ip and the rotarod dysfunction (rotarod deficit; mouse, in vivo, ip, 150 mg/kg, 120 min) was 75%. The IC50 [5] was 266 nM, the IC50 [6] was 7420 nM and the cytotoxicity [7] was “did not show any cytotoxicity at all”. The “effect on serotonin-stimulated cAMP accumulation (in words)” value ([7]; HeLa cells, FIG. 1) was “inhibited serotonin-stimulated cAMP accumulation in a dose-dependent manner”, the inhibition at 0.001 µM ([7]; HeLa, read-out: inhibition of cAMP increase induced by 0.3 μM serotonin, compound 0.001 μM) was 0% and the inhibition at 0.01 µM ([7]; HeLa, read-out: inhibition of cAMP increase induced by 0.3 μM serotonin, compound 0.01 μM) was 35%. For the same compound, the inhibition at 0.1 µM ([7]; HeLa, read-out: inhibition of cAMP increase induced by 0.3 μM serotonin, compound 0.1 μM) was 95%, the inhibition at 1 µM ([7]; HeLa, read-out: inhibition of cAMP increase induced by 0.3 μM serotonin, compound 1 μM) was 100% and the inhibition at 10 µM ([7]; HeLa, read-out: inhibition of cAMP increase induced by 0.3 μM serotonin, compound 10 μM) was 100%. For the same compound, the IC50 (D4 (hD4.2 receptor)) was > 10000 nM.

In the case of `COc1ccc2c(c1)c(CCN(C)C)cn2S(=O)(=O)c1ccccc1` [MS-245], the “pA2, antagonist” value (5-HT6 receptors) is listed as 8.88.

For `CNc1cc(NS(=O)(=O)c2ccc(N)cc2)nc(NC)n1` [Ro 04-6790], the “induction of yawning, stretching, and chewing behavior” value [8] is given as “capable of inducing this same effect”, the anticonvulsant activity [9] is given as “possess anticonvulsant activity” and the “food intake by rats” value (food intake) is given as “decreased food intake”.

For `COc1ccc(NS(=O)(=O)c2sc3ccc(Cl)cc3c2C)cc1N1CCNCC1` [SB-271046, reference compound], the “extracellular glutamate levels in the frontal cortex and dorsal hippocampus” value [10] is listed as “increased extracellular glutamate levels in the frontal cortex and dorsal hippocampus by several times”, the anticonvulsant activity [9] is listed as “possess anticonvulsant activity” and the “retention of a previously learned task in water maze” value [11] is listed as “significant improvement in retention of a previously learned task”. For the same compound, the “Rotarod Deficit TD50” value (rotarod deficit) was 112 mg/kg, ip.
